This note sets out measurements from patent US20170150719A1, “FUNGICIDAL PYRAZOLES AND THEIR MIXTURES” (E I DU PONT DE NEMOURS AND COMPANY, priority 2010, published 2017).

The subject of experiment [1] is Puccinia recondita f. sp. tritici. Briefly: Test H: wheat leaf rust, preventive spray on wheat seedlings, visual disease rating. Particulars: 100 = 100% disease control, 0 = no disease control; for pest or weed control at 200 µg/mL: read-out: Test H rating (disease control), wheat leaf rust, sprayed the day before inoculation; for Test H rating (disease control): wheat leaf rust, sprayed the day before inoculation.

Another experiment relates to Alternaria solani. Briefly: Test B: tomato early blight, preventive spray on tomato seedlings, visual disease rating. Particulars: for pest or weed control at 200 µg/mL: Alternaria solani, in Solanum lycopersicum, read-out: Test B rating (disease control); for Test B rating (disease control): tomato early blight, 100 = 100% disease control, 0 = no disease control relative to the controls.

Another experiment relates to Septoria nodorum. Description: Test E: Septoria glume blotch, preventive spray on wheat seedlings, visual disease rating. Particulars: 100 = 100% disease control, 0 = no disease control relative to the controls; for pest or weed control at 200 µg/mL: Parastagonospora nodorum, in Triticum aestivum, read-out: Test E rating (disease control), Septoria glume blotch; for Test E rating (disease control): Septoria glume blotch.

Experiment [2] has as its system Blumeria graminis f. sp. tritici. Briefly: Test I: wheat powdery mildew, preventive spray on wheat seedlings, visual disease rating. Particulars: 100 = 100% disease control, 0 = no disease control relative to the controls; for pest or weed control at 200 µg/mL: Blumeria graminis, in Triticum aestivum, read-out: Test I rating (disease control), wheat powdery mildew; for Test I rating (disease control): wheat powdery mildew.

Experiment [3] relates to Puccinia recondita f. sp. tritici. Briefly: Test G: wheat leaf rust, spray after inoculation (curative) on wheat seedlings, visual disease rating. Particulars: sprayed after inoculation, 100 = 100% disease control, 0 = no disease control. Format: in vivo. The source says:
(§1) A hyphen (-) indicates no test results.

A further experiment deals with Botrytis cinerea. Briefly: Test A: tomato Botrytis, preventive spray on tomato seedlings, visual disease rating. Particulars: 100 = 100% disease control, 0 = no disease control relative to the controls; for pest or weed control at 200 µg/mL: Botrytis cinerea, in Solanum lycopersicum, read-out: Test A rating (disease control), tomato Botrytis; for Test A rating (disease control): tomato Botrytis.

Another experiment deals with Septoria tritici. Description: Test F: wheat leaf blotch, preventive spray on wheat seedlings, visual disease rating. Format: in vivo. Particulars: 100 = 100% disease control, 0 = no disease control relative to the controls; for pest or weed control at 200 µg/mL: Zymoseptoria tritici.
From the text: as §1

As for `Cc1nn(C)c(C(O)c2ccc(F)cc2Cl)c1-c1ccc(F)cc1Cl` (stereo not drawn) [Compound 123, α,4-bis(2-chloro-4-fluorophenyl)-1,3-dimethyl-1H-pyrazole-5-methanol], the pest or weed control at 200 µg/mL in experiment [1] turned out to be 100%; in the experiment on Alternaria solani, 86%; in the experiment with Septoria nodorum it was 60%; in experiment [2], 95%; in experiment [3], 6%; in the experiment on Botrytis cinerea, 100%. The compound also had a pest or weed control at 200 µg/mL with Septoria tritici of 100%.

Turning to `Cc1nn(C)c(Nc2c(F)cc(Cl)cc2F)c1-c1ccc(F)cc1F` [Compound 126, N-(4-chloro-2,6-difluorophenyl)-4-(2,4-difluorophenyl)-1,3-dimethyl-1H-pyrazol-5-amine], the pest or weed control at 200 µg/mL in experiment [1] worked out at 99%; in the experiment on Alternaria solani, 86%; in the experiment with Septoria nodorum, 87%; in experiment [2] it was 100%; in experiment [3], 0%; in the experiment with Botrytis cinerea, 100%. In addition, the pest or weed control at 200 µg/mL with Septoria tritici is 100%.

Take `Cc1nn(C)c(Oc2ccc(C#N)cc2Cl)c1-c1c(F)cccc1F` [Compound 127, 3-chloro-4-[[4-(2,6-difluorophenyl)-1,3-dimethyl-1H-pyrazol-5-yl]oxy]benzonitrile]: the pest or weed control at 200 µg/mL in experiment [1] was 97%; in the experiment on Alternaria solani it was 0%; in the experiment on Septoria nodorum, 0%; in experiment [2], 97%; in experiment [3] it was 0%; with Botrytis cinerea it was 99%. In the experiment with Septoria tritici, this compound registered a pest or weed control at 200 µg/mL of 100%.

For `Cc1nn(C)c(Nc2c(F)cc(Cl)cc2F)c1-c1ccc(F)cc1Br` [Compound 129, 4-(2-bromo-4-fluorophenyl)-N-(4-chloro-2,6-difluorophenyl)-1,3-dimethyl-1H-pyrazol-5-amine], the pest or weed control at 200 µg/mL came to 100% in experiment [1]; 97% in the experiment with Alternaria solani; 95% with Septoria nodorum; 100% in experiment [2]; 79% in experiment [3]; 100% in the experiment on Botrytis cinerea. For the same compound, in the experiment on Septoria tritici, the pest or weed control at 200 µg/mL came out at 100%.

As to `Cc1nn(C)c(Oc2ccc(C#N)cc2F)c1-c1c(F)cccc1F` [Compound 130, 4-[[4-(2,6-difluorophenyl)-1,3-dimethyl-1H-pyrazol-5-yl]oxy]-3-fluorobenzonitrile], the pest or weed control at 200 µg/mL in experiment [1] is 100%; in the experiment with Alternaria solani, 90%; with Septoria nodorum, 0%; in experiment [2], 100%; in experiment [3], 0%; with Botrytis cinerea it was 100%. The pest or weed control at 200 µg/mL in the experiment on Septoria tritici is 100%.

Consider `Cc1nn(C)c(Nc2c(F)cc(Br)cc2F)c1-c1ccc(F)cc1F` [Compound 133, N-(4-bromo-2,6-difluorophenyl)-4-(2,4-difluorophenyl)-1,3-dimethyl-1H-pyrazol-5-amine], for which the pest or weed control at 200 µg/mL turned out to be 99% in experiment [1]; 97% with Alternaria solani; 88% in the experiment on Septoria nodorum; 100% in experiment [2]; 0% in experiment [3]; 99% in the experiment with Botrytis cinerea. The compound further displayed a pest or weed control at 200 µg/mL with Septoria tritici of 100%.

For `Cc1nn(C)c(Nc2c(F)cc(Br)cc2F)c1-c1ccc(F)cc1Cl` [Compound 134, N-(4-bromo-2,6-difluorophenyl)-4-(2-chloro-4-fluorophenyl)-1,3-dimethyl-1H-pyrazol-5-amine], the pest or weed control at 200 µg/mL in experiment [1] is 100%; in the experiment with Alternaria solani, 99%; in the experiment on Septoria nodorum it was 64%; in experiment [2], 100%; in experiment [3], 74%; in the experiment with Botrytis cinerea it was 100%. For the same compound, the pest or weed control at 200 µg/mL in the experiment on Septoria tritici is 100%.

Turning to `Cc1nn(C)c(Nc2c(Cl)cc(F)cc2Cl)c1-c1ccc(F)cc1F` [Compound 137, N-(2,6-dichloro-4-fluorophenyl)-4-(2,4-difluorophenyl)-1,3-dimethyl-1H-pyrazol-5-amine], the pest or weed control at 200 µg/mL in experiment [1] was 99%; in the experiment on Alternaria solani, 95%; with Septoria nodorum, 87%; in experiment [2], 100%; in experiment [3] it was 87%; with Botrytis cinerea, 100%. Moreover, the pest or weed control at 200 µg/mL in the experiment with Septoria tritici is 100%.

With `Cc1nn(C)c(Oc2ccc(C#N)cc2Br)c1-c1ccc(F)cc1F` [Compound 139, 3-bromo-4-[[4-(2,4-difluorophenyl)-1,3-dimethyl-1H-pyrazol-5-yl]oxy]benzonitrile], the pest or weed control at 200 µg/mL turned out to be 89% in experiment [1]; 0% in the experiment with Alternaria solani; 0% with Septoria nodorum; 0% in experiment [2]; 9% in experiment [3]; 82% in the experiment with Botrytis cinerea. In addition, the pest or weed control at 200 µg/mL in the experiment with Septoria tritici worked out at 100%.

Take `Cc1nn(C)c(Oc2ccc(C#N)cc2Cl)c1-c1ccc(F)cc1F` [Compound 140, 3-chloro-4-[[4-(2,4-difluorophenyl)-1,3-dimethyl-1H-pyrazol-5-yl]oxy]benzonitrile]: the pest or weed control at 200 µg/mL in experiment [1] stood at 97%; in the experiment on Alternaria solani, 0%; in the experiment on Septoria nodorum, 0%; in experiment [2], 97%; in experiment [3], 9%; in the experiment with Botrytis cinerea it was 67%. The compound further returned a pest or weed control at 200 µg/mL in the experiment on Septoria tritici of 100%.

Turning to `Cc1nn(C)c(Nc2c(F)cc(Cl)cc2Cl)c1-c1ccc(F)cc1F` [Compound 141, N-(2,4-dichloro-6-fluorophenyl)-4-(2,4-difluorophenyl)-1,3-dimethyl-1H-pyrazol-5-amine], the pest or weed control at 200 µg/mL in experiment [1] turned out to be 100%; with Alternaria solani, 99%; in the experiment with Septoria nodorum, 99%; in experiment [2], 100%; in experiment [3], 97%; with Botrytis cinerea, 99%. This compound also displayed a pest or weed control at 200 µg/mL with Septoria tritici of 100%.

For the compound `Cc1nn(C)c(Nc2c(F)cc(F)cc2Br)c1-c1ccc(F)cc1Cl` [Compound 144, N-(2-bromo-4,6-difluorophenyl)-4-(2-chloro-4-fluorophenyl)-1,3-dimethyl-1H-pyrazol-5-amine], the pest or weed control at 200 µg/mL in experiment [1] was found to be 100%; in the experiment on Alternaria solani it was 99%; with Septoria nodorum, 100%; in experiment [2], 100%; in experiment [3], 100%; in the experiment on Botrytis cinerea, 100%. The pest or weed control at 200 µg/mL with Septoria tritici is 100%.

Regarding `Cc1nn(C)c(C(O)c2c(F)cc(Cl)cc2F)c1-c1ccc(F)cc1Cl` (stereo not drawn) [Compound 148, α-(4-chloro-2,6-difluorophenyl)-4-(2-chloro-4-fluorophenyl)-1,3-dimethyl-1H-pyrazole-5-methanol], the pest or weed control at 200 µg/mL in experiment [1] was found to be 100%; with Alternaria solani it was 0%; with Septoria nodorum, 60%; in experiment [2], 64%; in experiment [3], 0%; in the experiment on Botrytis cinerea, 100%. In the experiment on Septoria tritici, this compound yielded a pest or weed control at 200 µg/mL of 100%.

As for `Cc1nn(C)c(Oc2ccc(Cl)cc2Cl)c1-c1c(F)cc(F)cc1F` [compound 9], the “Test H rating (disease control)” value in experiment [1] was 99%. For the same compound, the “Test B rating (disease control)” value in the experiment on Alternaria solani amounted to 9%. Besides, the “Test E rating (disease control)” value in the experiment with Septoria nodorum is on record as 0%. Further, the “Test I rating (disease control)” value in experiment [2] is 99%. Moreover, the “Test G rating (disease control)” value in experiment [3] amounted to 0%. In the experiment with Botrytis cinerea, the “Test A rating (disease control)” value amounted to 99%. The “Test F rating (disease control)” value in the experiment on Septoria tritici is recorded as 97%.

`COc1cc(F)c(-c2c(C)nn(C)c2Oc2ccc(Cl)cc2Cl)c(F)c1` [compound 10]: in experiment [1], the “Test H rating (disease control)” value is 99%. For the same compound, the “Test B rating (disease control)” value in the experiment on Alternaria solani is given as 0%. Also, the “Test E rating (disease control)” value in the experiment on Septoria nodorum came to 0%. Moreover, the “Test I rating (disease control)” value in experiment [2] came to 99%. Besides, the “Test G rating (disease control)” value in experiment [3] was 92%. Besides, the “Test A rating (disease control)” value in the experiment with Botrytis cinerea came out at 99%. Besides, in the experiment with Septoria tritici, the “Test F rating (disease control)” value came out at 94%.
